Reference: patent publication US9938258B2 (Karyopharm Therapeutics Inc., priority 2012, dated 2018)
Like-named read-outs stand apart in the source and are kept apart here.

Tests used:
MS751 cells = assay: MTT cell proliferation assay, MS751; type: cell-based, human; conditions: Homo sapiens
How it was run: (§1)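 Cells were seeded at 5,000-10,000 per well, left to attach overnight, then exposed to eight compound concentrations from 1 nM to 30 μM. After about 4 h with MTT, solubilized formazan was read at 490 nm and percent inhibition versus negative control was calculated.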

Z138 cells = assay: MTT cell proliferation assay, Z138; type: cell-based; conditions: Homo sapiens
How it was run: as §1

3T3 cells = assay: MTT cell proliferation assay, 3T3; type: cell-based, mouse; conditions: Mus musculus
How it was run: as §1

[1] = MS751, MS751 cells, approximately 64-72 hours incubation, read-out: MTT Assay IC50, MS751
[2] = Z-138, Z138 cells, approximately 64-72 hours incubation, read-out: MTT Assay IC50, Z138
[3] = NIH3T3, 3T3 cells, approximately 64-72 hours incubation, read-out: MTT Assay IC50, 3T3
[4] = MS751, MS751 cells, eight concentrations 1 nM to 30 μM, incubation approximately 64-72 hours, read-out: MTT Assay IC50, MS751
[5] = Z-138, Z138 cells, eight concentrations 1 nM to 30 μM, incubation approximately 64-72 hours, read-out: MTT Assay IC50, Z138
[6] = NIH3T3, 3T3 cells, eight concentrations 1 nM to 30 μM, incubation approximately 64-72 hours, read-out: MTT Assay IC50, 3T3

SMILES	IC50 (MS751 cells; [1])	IC50 (Z138 cells; [2])	IC50 (3T3 cells; [3])	further results
Nc1ccc(CCC(=O)NCC2Cc3cc(-c4ccc(C(=O)N5CCNCC5)cc4)cc(Cl)c3O2)cn1 (stereo not drawn) [Compound 920, 3-(6-aminopyridin-3-yl)-N-((7-chloro-5-(4-(piperazine-1-carbonyl)phenyl)-2,3-dihydrobenzofuran-2-yl)methyl)propanamide]	> 30 µM	> 30 µM	> 30 µM	
Nc1ccc(/C=C/C(=O)NCC2Cc3cc(-c4ccc(C(=O)N5CCOCC5)cc4)cc(C(F)(F)F)c3O2)cn1 (stereo not drawn) [Compound 346, (E)-3-(6-aminopyridin-3-yl)-N-((5-(4-(morpholine-4-carbonyl)phenyl)-7-(trifluoromethyl)-2,3-dihydrobenzofuran-2-yl)methyl)acrylamide]	< 0.1 µM	0.1 to 5 µM	< 0.1 µM	
Nc1ccc(/C=C/C(=O)NCC2Cc3cc(-c4ccc(C(=O)N5CC(F)(F)C5)c(F)c4F)cc(Cl)c3O2)cn1 (stereo not drawn) [Compound 337]	< 0.1 µM	< 0.1 µM	0.1 to 5 µM	
C=C(Cc1cccnc1)C(=O)NCC1Cc2cc(-c3ccc(C(C)=O)s3)cc(Cl)c2O1 (stereo not drawn) [Compound 240, N-((5-(5-acetylthiophen-2-yl)-7-chloro-2,3-dihydrobenzofuran-2-yl)methyl)-2-(pyridin-3-ylmethyl)acrylamide]	5 to 30 µM	5 to 30 µM	> 30 µM	
Nc1ccc(CNC(=O)/C=C/C2Cc3cc(-c4ccc(C(=O)N5CC[C@H](F)C5)cc4)cc(Cl)c3O2)cn1 (stereo partly drawn) [Compound 359, (E)-N-((6-Aminopyridin-3-yl)methyl)-3-(7-chloro-5-(4-((S)-3-fluoropyrrolidine-1-carbonyl)phenyl)-2,3-dihydrobenzofuran-2-yl)acrylamide]	0.1 to 5 µM	> 30 µM	5 to 30 µM	
CC(=O)c1ccc(-c2cc(Cl)c3c(c2)CC(CNC(=O)/C=C/c2cc(C)n(-c4cc(C)on4)c2C)O3)s1 (stereo not drawn) [Compound 288, (E)-N-((5-(5-acetylthiophen-2-yl)-7-chloro-2,3-dihydrobenzofuran-2-yl)methyl)-3-(2,5-dimethyl-1-(5-methylisoxazol-3-yl)-1H-pyrrol-3-yl)acrylamide]	> 30 µM	> 30 µM	> 30 µM	
CC(=O)c1ccc(-c2cc(Cl)c3c(c2)CC(CNC(=O)/C=C/c2sc4ccccc4c2Cl)O3)s1 (stereo not drawn) [Compound 291, (E)-N-((5-(5-acetylthiophen-2-yl)-7-chloro-2,3-dihydrobenzofuran-2-yl)methyl)-3-(3-chlorobenzo[b]thiophen-2-yl)acrylamide]	> 30 µM	> 30 µM	> 30 µM	
CC(=O)c1ccc(-c2cc(Cl)c3c(c2)CC(CNC(=O)/C=C/c2sccc2Cl)O3)s1 (stereo not drawn) [Compound 163, (E)-N-((5-(5-acetylthiophen-2-yl)-7-chloro-2,3-dihydrobenzofuran-2-yl)methyl)-3-(3-chlorothiophen-2-yl)acrylamide]				IC50 (MS751 cells; [4]): > 30 µM; IC50 (Z138 cells; [5]): > 30 µM; IC50 (3T3 cells; [6]): > 30 µM
Nc1ccc(CNC(=O)/C=C/C2Cc3cc(-c4ccc(C(=O)N5CC(F)C5)cc4)cc(Cl)c3O2)cn1 (stereo not drawn) [Compound 361, (E)-N-((6-Aminopyridin-3-yl)methyl)-3-(7-chloro-5-(4-(3-fluoroazetidine-1-carbonyl)phenyl)-2,3-dihydrobenzofuran-2-yl)acrylamide]	0.1 to 5 µM	0.1 to 5 µM	0.1 to 5 µM	
Nc1ccc(/C=C/C(=O)NCC2Cc3c(-c4ccccc4C(=O)N4CC(F)(F)C4)ccc(Cl)c3O2)cn1 (stereo not drawn) [Compound 341, (E)-3-(6-aminopyridin-3-yl)-N-((7-chloro-4-(2-(3,3-difluoroazetidine-1-carbonyl)phenyl)-2,3-dihydrobenzofuran-2-yl)methyl)acrylamide]	< 0.1 µM	0.1 to 5 µM	< 0.1 µM	
O=C(/C=C/C1Cc2cc(-c3ccc(C(=O)N4CCOCC4)cc3)cc(Cl)c2O1)NCc1cccnc1 (stereo not drawn) [Compound 334, (E)-3-(7-Chloro-5-(4-(morpholine-4-carbonyl)phenyl)-2,3-dihydrobenzofuran-2-yl)-N-(pyridin-3-ylmethyl)acrylamide]	0.1 to 5 µM	0.1 to 5 µM	5 to 30 µM	
CC(=O)c1ccc(-c2cc(Cl)c3c(c2)CC(CNC(=O)/C=C/c2ccccn2)O3)s1 (stereo not drawn) [Compound 103, (E)-N-((5-(5-acetylthiophen-2-yl)-7-chloro-2,3-dihydrobenzofuran-2-yl)methyl)-3-(pyridin-2-yl)acrylamide]				IC50 (MS751 cells; [4]): > 30 µM; IC50 (Z138 cells; [5]): > 30 µM; IC50 (3T3 cells; [6]): > 30 µM
CC1(CNC(=O)/C=C/c2ccc(N)nc2)Cc2cc(-c3ccc(C(=O)N4CCOCC4)cc3)cc(Cl)c2O1 (stereo not drawn) [Compound 349, (E)-3-(6-aminopyridin-3-yl)-N-((7-chloro-2-methyl-5-(4-(morpholine-4-carbonyl)phenyl)-2,3-dihydrobenzofuran-2-yl)methyl)acrylamide]	0.1 to 5 µM	0.1 to 5 µM	< 0.1 µM	
CC(=O)c1ccc(-c2cc(Cl)c3c(c2)CC(CNC(=O)C#Cc2cccnc2)O3)s1 (stereo not drawn) [Compound 251, N-((5-(5-acetylthiophen-2-yl)-7-chloro-2,3-dihydrobenzofuran-2-yl)methyl)-3-(pyridin-3-yl)propiolamide]				IC50 (MS751 cells; [4]): 0.1 to 5 µM; IC50 (Z138 cells; [5]): 0.1 to 5 µM; IC50 (3T3 cells; [6]): 5 to 30 µM
Cc1cc(Cl)c2c(c1)CC(CNC(=O)/C=C/c1cccnc1)O2 (stereo not drawn) [Compound 275, (E)-N-((7-chloro-5-methyl-2,3-dihydrobenzofuran-2-yl)methyl)-3-(pyridin-3-yl)acrylamide]				IC50 (MS751 cells; [4]): 5 to 30 µM; IC50 (Z138 cells; [5]): 5 to 30 µM; IC50 (3T3 cells; [6]): > 30 µM
CC1(C)COCCN1C(=O)c1ccc(-c2cc(Cl)c3c(c2)CC(/C=C/C(=O)NCc2ccc(N)nc2)O3)nc1 (stereo not drawn) [Compound 368, (E)-N-((6-aminopyridin-3-yl)methyl)-3-(7-chloro-5-(5-(3,3-dimethylmorpholine-4-carbonyl)pyridin-2-yl)-2,3-dihydrobenzofuran-2-yl)acrylamide]	< 0.1 µM	< 0.1 µM	0.1 to 5 µM	
Nc1ccc(/C=C/C(=O)NCC2Cc3cc(-c4c(F)cc(C(=O)N5CCOCC5)cc4F)cc(Cl)c3O2)cn1 (stereo not drawn) [Compound 902, (E)-3-(6-aminopyridin-3-yl)-N-((7-chloro-5-(2,6-difluoro-4-(morpholine-4-carbonyl)phenyl)-2,3-dihydrobenzofuran-2-yl)methyl)acrylamide]	< 0.1 µM	< 0.1 µM	0.1 to 5 µM	
CC(=O)c1ccc(-c2cc(Cl)c3c(c2)CC(CNC(=O)/C=C/c2ccc(N)nc2)O3)s1 (single isomer, unassigned) [Compound 308, (E)-N-((5-(5-acetylthiophen-2-yl)-7-chloro-2,3-dihydrobenzofuran-2-yl)methyl)-3-(6-aminopyridin-3-yl)acrylamide]	0.1 to 5 µM	0.1 to 5 µM	5 to 30 µM	
Nc1ccc(/C=C/C(=O)NCC2Oc3c(Cl)cc(-c4ccc(C(=O)N5CCOCC5)cc4)cc3C2=O)cn1 (stereo not drawn) [Compound 348, (E)-3-(6-aminopyridin-3-yl)-N-((7-chloro-5-(4-(morpholine-4-carbonyl)phenyl)-3-oxo-2,3-dihydrobenzofuran-2-yl)methyl)acrylamide]				IC50 (MS751 cells; MS751, read-out: MTT Assay IC50, MS751): 0.1 to 5 µM; IC50 (Z138 cells; Z-138, read-out: MTT Assay IC50, Z138): 5 to 30 µM; IC50 (3T3 cells; NIH3T3, read-out: MTT Assay IC50, 3T3): 0.1 to 5 µM
O=C(/C=C/c1cccnn1)NCC1Cc2cc(-c3ccc(C(=O)N4CCOCC4)cc3)cc(Cl)c2O1 (stereo not drawn) [Compound 236, (E)-N-((7-chloro-5-(4-(morpholine-4-carbonyl)phenyl)-2,3-dihydrobenzofuran-2-yl)methyl)-3-(pyridazin-3-yl)acrylamide]	0.1 to 5 µM	0.1 to 5 µM	0.1 to 5 µM	
Nc1ccc(/C=C/C(=O)NCC2Cc3cc(-c4cnc(C(=O)N5CCOCC5)c(Cl)c4)cc(Cl)c3O2)cn1 (stereo not drawn) [Compound 326, (E)-3-(6-aminopyridin-3-yl)-N-((7-chloro-5-(5-chloro-6-(morpholine-4-carbonyl)pyridin-3-yl)-2,3-dihydrobenzofuran-2-yl)methyl)acrylamide]	0.1 to 5 µM	< 0.1 µM	5 to 30 µM	
Nc1ccc(/C=C/C(=O)NCC2Cc3c(-c4ccc(C(=O)N5CCOCC5)cc4)ccc(Cl)c3O2)cn1 (stereo not drawn) [Compound 249, (E)-3-(6-aminopyridin-3-yl)-N-((7-chloro-4-(4-(morpholine-4-carbonyl)phenyl)-2,3-dihydrobenzofuran-2-yl)methyl)acrylamide]	< 0.1 µM	< 0.1 µM	0.1 to 5 µM	
Cc1noc(-c2ccccc2)c1-c1cc(Cl)c2c(c1)CC(CNC(=O)/C=C/c1ccc(N)nc1)O2 (stereo not drawn) [Compound 327, (E)-3-(6-aminopyridin-3-yl)-N-((7-chloro-5-(3-methyl-5-phenylisoxazol-4-yl)-2,3-dihydrobenzofuran-2-yl)methyl)acrylamide]	0.1 to 5 µM	< 0.1 µM	0.1 to 5 µM	
Cc1ccc(-c2cc(Cl)c3c(c2)CC(CNC(=O)/C=C/c2cccnc2)O3)cc1 (stereo not drawn) [Compound 15, (E)-N-((7-chloro-5-p-tolyl-2,3-dihydrobenzofuran-2-yl)methyl)-3-(pyridin-3-yl) acrylamide]				IC50 (MS751 cells; [4]): 0.1 to 5 µM; IC50 (Z138 cells; [5]): 0.1 to 5 µM; IC50 (3T3 cells; [6]): 5 to 30 µM
